What all share (assay type): cell-based, human
Assay [1] has as its system βlox5 cells. The experiment in a line: RT-PCR analysis of pancreatic hormone gene expression in βlox5 cells. On the procedure: FIG. 2: RT-PCR analysis of pancreatic hormone gene expression in βlox5. The conditions tested were βlox5 cells grown in monolayer culture, βlox5 cells infected with a retroviral vector expressing PDX-1, βlox5 cells grown as three-dimensional aggregates, and βlox5 cells treated with exendin-4. FIG. 2(A) insulin; FIG. 2(B) quantitative RT-PCR analysis of insulin gene expression; FIG. 2(C) other pancreatic hormones. Exendin-4 (Sigma) was used at a concentration of 10 nM. RT-PCR for insulin, somatostatin, glucagon, and IAPP have been described previously (Itkin-Ansari et al., submitted). Quantitative RT-PCR was done by interpolation from a standard curve constructed using a plasmid containing the human insulin cDNA.
PDX-1 also acted synergistically with cell-cell contact to further increase the level of somatostatin expression about 1,000-fold above the cells not expressing PDX-1, to a level similar to that found in normal human islets. To determine whether βlox5 could be induced to express pancreatic hormones, recombinant PDX-1 was expressed in βlox5 using a retroviral vector. […] Therefore, other factors were examined for their ability to induce hormone expression in βlox5 cells expressing PDX-1. Activin and betacellulin have been reported to be able to induce endocrine differentiation in cell lines and primary cells (Mashima et al., Diabetes 48:304-9 (1999), Huotari et al., Endocrinology 139, 1494-9 (1998), Mashima et al., J Clin Invest 97:1647-54 (1996), Yamaoka et al., J Clin Invest 102:294-301 (1998)). However, they had no effect on hormone expression in βlox5 cells (data not shown).
GLP-1, a small peptide cleaved from the proglucagon molecule, is an insulin secretogogue Drucker et al., Diabetes 47:159-69 (1998)).

For assay [2], the system named is βlox5 cells. Briefly: Analysis of transcription factors (BETA2 RT-PCR, CREB western blot) in βlox5 cells. The method, then: FIG. 3: Analysis of transcription factors expressed in βlox5 cells. FIG. 3(A) electrophoretic mobility shift assay (EMSA) of PDX-1. EMSA for PDX-1 was performed using a probe derived from the human insulin promoter A5 element. FIGS. 3(B&C) RT-PCR analysis of BETA2 and Pax6. FIG. 3(D) Western blot analysis of CREB. FIG. 3(E) EMSA of RIPE3b.
The expression of transcription factors important in β-cell development was examined to determine whether they had been induced by PDX-1, cell-cell contact, and exendin-4. […] GLP-1 has been reported to increase cAMP levels and this has been thought to be a major mechanism by which GLP-1 acts as an insulin secretogogue (Serre et al., Endocrinology 139:4448-54 (1998)). […] RIPE3b, a factor that plays a critical role in insulin gene expression but that has not yet been cloned, is expressed in βlox5 irrespective of PDX-1, cell-cell contact, or exendin-4 (FIG. 3E).

Assay [3] has as its system βlox5 cells expressing both NeuroD/BETA2 and PDX-1. The experiment in a line: Insulin production (RT-PCR) in βlox5 cells expressing both NeuroD/BETA2 and PDX-1. The method, then:
Cells were cultured in DMEM with 5.5 mM glucose and 10% FBS. Selection of clones was conducted in the same medium containing 300 ug/ml Hygromycin B. Qualitative RT-PCR was performed according to Itkin-Ansari et al., Mol. Endocrinol. 14:814-822 (2000).
In light of the previous finding that activation of GLP-1 receptor is one of the necessary inducing factors for β-cell differentiation, βlox5 cells expressing both NeuroD/BETA2 and PDX-1 were also tested for insulin production, before and after stimulation by exendin-4. The cells were treated with 10 nM exendin-4 in the culture medium for four days before the assay.
Cell aggregation was induced as described by Itkin-Ansari et al., supra, 2000. Quantitative insulin RT-PCR was performed by interpolation from a standard curve constructed using a plasmid containing the human insulin cDNA, as described by Beattie et al., Diabetes, 48:1013-1019, 1999.

In assay [4] the test system is βlox5/PDX-1/MycER aggregates. Briefly: Hormone expression after c-Myc induction in βlox5/PDX-1/MycER aggregates (RT-PCR, insulin ELISA). On the procedure:
(§1) To determine whether the induction of differentiation in the TRM-6 and βlox5 cell lines requires downregulation of c-Myc expression, the effect of inducing c-Myc activity on hormone expression in cells expressing the MycER fusion protein was tested. 4-OHTM or the same amount of ethanol carrier was added to TRM-6/PDX-1 and βlox5/PDX-1 cells at the initiation of the four day period of aggregation required for hormone induction. In addition, 100 nM of the GLP-1 agonist exendin-4 was added to βlox5/PDX-1, as activation of the GLP-1 receptor is necessary for β-cell differentiation in that cell line (Itkin-Ansari, et al., Molec. Endocrinol. 14:814-822(2000)).
(§2) In the absence of 4-OHTM, TRM-6 aggregates expressed high levels of somatostatin after four days of aggregation, while βlox5 aggregates expressed high levels of insulin. […] Insulin protein (273±70.5 pmoles/L) was detected by ELISA in supernatant from βlox5/PDX-1/MycER aggregates in the absence of 4-OHTM but was undetectable in the presence of 4-OHTM. Data were obtained from four independent experiments. To determine whether c-Myc activation produced ablation of hormone expression as opposed to a switch to a different endocrine lineage, the expression of the other major pancreatic hormones, somatostatin, glucagon and pancreatic polypeptide, was measured in 4-OHTM-treated βlox5/PDX-1/MycER cells and found to be absent.

For assay [5], the system named is TRM-6/PDX-1 cells. Briefly: Somatostatin expression after c-Myc induction in TRM-6 aggregates. Particulars: four days of aggregation, presence of 4-OHTM. On the procedure: as §1, §2
Assay [6] relates to βlox5/PDX-1/MycER aggregates. Briefly: Ki-67 immunostaining for cell proliferation. The conditions noted are these: 4-OHTM added to aggregates; 16% without 4-OHTM; n=300 cells. An excerpt: PDX-1 and cell-cell contact caused a decrease in cell proliferation in βlox5/PDX-1/MycER cells as shown by immunostaining for the proliferation-associated nuclear antigen Ki-67. In monolayer culture, 77% of βlox5 cells expressed Ki67, while only 16% of the cells in βlox5/PDX-1/MycER aggregates were Ki67 positive (n=300 cells in each case). Addition of 4-OHTM to the aggregates increased the percentage of Ki67 positive cells to 57%. In the absence of 4-OHTM, few cells in the aggregates were positive for Ki-67, while in the presence of 4-OHTM many cells throughout the aggregates were positive.

In assay [7] the test system is βlox5/PDX-1/MycER aggregates. Briefly: Transcription factor expression after c-Myc activation (RT-PCR, EMSA, western blot). Particulars: c-Myc activation by 4-OHTM. On the procedure: For western blots, whole-cell extracts (10 μg of protein) from monolayer cultures and aggregates of TRM-6 and βlox5 cells as well as whole-cell extracts of the MycER expressing clones were used. Expression of c-Myc and MycER was determined by Western blot analysis with the human c-Myc-specific monoclonal antibody Myc-9E10 (Santa Cruz Biotechnology, Santa Cruz, Calif.) at a dilution of 1:250. The same membrane was re-probed with anti-actin rabbit antibody A2066 (Sigma, Saint Louis, Mo.) in order to verify the protein equivalence when comparing monolayers to aggregates. Western Blot for Phospho-CREB (Ser133) was performed using a polyclonal antibody (PhosphoPlusCREB (Ser133) Antibody Kit, Cell Signaling Technology, Beverly, Mass.) at a dilution of 1:500. Bound antibody was detected with horseradish peroxidase-linked anti-mouse or anti-rabbit Ig (Amersham Pharmacia Biotech, Buckinghamshire, England) and ECL (Amersham Pharmacia Biotech, Buckinghamshire, England).
βlox5 cells express Pax6 and RIPE3b in both the uninduced and induced states. BETA2/NeuroD is present only when the cells are induced. […] As shown by electrophoretic mobility shift assay analysis (EMSA), although not quantitative, we found binding of PDX-1, BETA2/NeuroD1 or RIPE3b to the insulin promoter in the samples from βlox5/PDX-1/MycER aggregates cultured with and without 4-OHTM. […]

The subject of assay [8] is βlox5/PDX-1/MycER cells. Briefly: PDX-1 cellular localization and p38 activation state. An excerpt: PDX-1 plays a role in the establishment and maintenance of β-cell differentiation. In both the βlox5 and TRM-6 cell lines, it is required for the induction of hormone expression. Therefore, PDX-1 was a good candidate for being a downstream target for c-Myc in the inhibition of hormone expression. Since, in the cell lines that we are studying, PDX-1 is introduced exogenously using a retroviral vector and is transcribed from the retroviral LTR promoter, it was unlikely that c-Myc would be acting at the transcriptional level. Therefore, we investigated PDX-1 cellular localization in βlox5/PDX-1/MycER cells in the presence and absence of 4-OHTM. […] However, many cells exposed to 4-OHTM continued to express PDX-1 in the nucleus and PDX-1 binding to a target DNA sequence could still be detected by EMSA. This could be due to the length of time that the cells were exposed to 4-OHTM or to other pathways such as p38 (RK/SAPK2) that influences PDX-1 localization and function.
Because PDX-1 localization has been reported to be influenced by the p38 pathway, the activation state of p38 was studied using a monoclonal antibody specific for the phosphorylated/active form of the enzyme. In control and 4-OHTM-treated βlox5/PDX-1/MycER cells, active p38 was present in the cytoplasm.

The test system of assay [9] is βlox5/PDX-1 cells. The experiment in a line: Expansion of βlox5/PDX-1 cells under continued administration. Particulars: continued administration of 4-OHTM; cells ordinarily almost completely growth arrested. An excerpt:
The finding that c-Myc induces the translocation of PDX-1 to the cytoplasm provides important clues to the mechanism by which c-Myc may act on pancreatic endocrine cell proliferation and differentiation. In our system, not only does PDX-1 play a role in inducing hormone expression, but it also produces a marked growth arrest, particularly in the β-cell line βlox5. […] Thus, cell-cell contact and PDX-1 each play dual roles in inhibiting entry into the cell cycle as well as promoting differentiation.

The test system of assay [10] is MycER fusion protein. Briefly: RT-PCR of c-Myc downstream targets cyclin E and cyclin A after MycER activation. Particulars: βlox5/PDX-1/MycER aggregates. An excerpt:
To test the hypothesis that decreased c-Myc expression in cell aggregates plays a causal role in promoting differentiation by cell-cell contact, we took advantage of the inducible properties of a fusion protein between an estrogen receptor and c-Myc (Eilers, et al. Nature 340:66-68 (1989)). MycER was expressed in TRM-6 and βlox5 by retroviral infection followed by puromycin selection. Selected βlox5 and TRM-6 cells expressed MycER as shown by western blot analysis. To determine whether the fusion protein was active, the expression of cyclin E and cyclin A was determined since they are known downstream targets of c-Myc.

Where [11] appears, read: induced βlox5 cells (PDX-1, cell-cell contact, exendin-4).

Turning to exendin-4, in [1] (exendin-4 by itself, 10 nM, four days), the “effect on hormone expression in βlox5” value is on record as “no effect”. For the same compound, in assay [1] (setting [11]), the “Islet amyloid polypeptide (IAPP) mRNA” value is “expressed”; the “glucagon, somatostatin and pancreatic polypeptide (PP) expression” value is listed as “not induced”. The “insulin mRNA” value in assay [1] (βlox5 cells expressing PDX-1, suspension culture as three-dimensional aggregates, 10 nM exendin-4) is “a substantial amount of insulin mRNA was detectable”. Also, in [2] (PDX-1, cell-cell contact and exendin-4), the BETA2 expression result is “induced only by the combination of all three inducing factors”. The CREB expression entry in assay [2] (exendin-4 alone, independently of cell-cell contact and PDX-1) is reported as “induced”. The insulin production result in assay [3] (10 nM exendin-4, suspension culture, three-dimensional aggregates) is listed as “clearly detectable”. In addition, the insulin production entry in [3] (exendin-4 treatment alone, 10 nM, four days) was “incapable of inducing insulin production”.

For `CC/C(=C(\c1ccc(O)cc1)c1ccc(OCCN(C)C)cc1)c1ccccc1` [4-OHTM], the “expression of somatostatin, glucagon and pancreatic polypeptide” value in assay [4] (4-OHTM-treated βlox5/PDX-1/MycER cells) was “absent”. Further, the “insulin mRNA” value in [4] (four days of aggregation, 100 nM exendin-4, presence of 4-OHTM) is “neither somatostatin nor insulin mRNA was present”. Also, the “insulin protein in supernatant by ELISA” value in assay [4] (presence of 4-OHTM, 273±70.5 pmoles/L in its absence, four independent experiments) is “undetectable”. In assay [5], the “somatostatin mRNA” value is reported as “neither somatostatin nor insulin mRNA was present”. Moreover, the “percentage of Ki67 positive cells” value in [6] is 57%. Also, the “level of mRNA for Pax6 and induction of BETA2/NeuroD1 gene expression” value in assay [7] (RT-PCR) is “did not result in a change”. Also, in assay [7] (western blot), the CREB expression entry is “not affected”. In assay [8] (4-OHTM-induced activation of c-Myc), the PDX-1 cellular localization result is on record as “translocation of PDX-1 from the nucleus to the cytoplasm”. For the same compound, the “p38 expression or activation” value in assay [8] (4-OHTM-treated cells, antibody to phosphorylated/active p38) is recorded as “did not result in any changes”. In assay [9], the cell growth result was “rapid expansion”. Further, in assay [10], the “cyclin A expression” value was “did not affect” and the “cyclin E mRNA expression” value was “increase”.

Regarding Activin, in [1] (βlox5 cells expressing PDX-1, data not shown), the “effect on hormone expression in βlox5 cells” value is “no effect”.

These data come from patent publication US6911324B2, “Induction of beta cell differentiation in human cells” (The Regents of the University of California, priority 2001, dated 2005).
